Among the data in BindingDB's records for doi:10.1080/14756360701810207 (Gyeongsang National University, 2008) are IC50 and Ki values, retold here.

The IC50 is the point on the concentration scale where inhibition reaches its midpoint. As usually defined, the Ki is a dissociation constant, usually derived from enzyme kinetics or from competition with a known ligand. A high value points to weaker binding.

The assay has as its target T1, Polyphenol oxidase 2 (Agaricus bisporus, UniProt O42713).
T1 sequence (O42713 whole entry): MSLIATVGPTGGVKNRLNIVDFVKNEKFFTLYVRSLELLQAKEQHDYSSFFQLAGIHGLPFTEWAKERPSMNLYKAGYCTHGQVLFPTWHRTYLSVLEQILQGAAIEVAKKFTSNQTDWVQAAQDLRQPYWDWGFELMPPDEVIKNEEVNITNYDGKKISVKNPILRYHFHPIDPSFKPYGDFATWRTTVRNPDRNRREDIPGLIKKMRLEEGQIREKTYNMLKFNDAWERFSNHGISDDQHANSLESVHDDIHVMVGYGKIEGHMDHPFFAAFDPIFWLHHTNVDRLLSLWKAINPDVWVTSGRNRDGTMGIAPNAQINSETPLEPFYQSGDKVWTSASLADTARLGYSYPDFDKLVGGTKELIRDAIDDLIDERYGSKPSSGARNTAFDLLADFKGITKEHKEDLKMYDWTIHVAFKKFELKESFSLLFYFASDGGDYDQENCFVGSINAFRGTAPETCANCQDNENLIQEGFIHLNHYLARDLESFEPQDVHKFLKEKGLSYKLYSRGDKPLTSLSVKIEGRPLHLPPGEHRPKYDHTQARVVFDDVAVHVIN
Briefly: Tyrosinase Assay. The following applies: 30 °C. From the text:
Mushroom tyrosinase using either L-DOPA or L-tyrosine as substrate. In spectrophotometric experiments, enzyme activity was monitored by dopachrome formation at 475 nm with a UV-Vis spectrophotometer (Spectro UV-Vis Double beam; UVD-3500, Labomed, Inc.) at 30 C.

“And” between values parts separate entries of the source, which are not always exact repeats. Equal entries are not always repeated.

In the case of `C/C(=C\Cc1c(-c2ccc(O)cc2O)oc2c3c(cc(O)c2c1=O)OC(C)(CO)C=C3)CO` (stereo not drawn) [Mormin, 1], the concentration for half-maximal inhibition (IC50) was 87.8 µM and 215 µM; the affinity, expressed as Ki, was 49.2 µM.

Regarding `O=c1cc(-c2ccc(O)cc2O)oc2cc(O)cc(O)c12` [Norartocarpetin, 5], the affinity corresponds to a Ki of 0.61 µM.

For the molecule `CC(C)=CCc1c(-c2ccc(O)cc2O)oc2c(CC=C(C)C)c(O)cc(O)c2c1=O`, the IC50 was 135 µM and > 300 µM; the affinity, expressed as Ki, was 80.5 µM.

On to `CC(C)=CC1Oc2cc(O)ccc2-c2oc3c4c(cc(O)c3c(=O)c21)OC(C)(C)C=C4` (stereo not drawn) [Cycolmorusin, 2], for which the concentration for half-maximal inhibition (IC50) is 91.6 µM and 161 µM; the inhibitory constant (Ki) was 46.4 µM.

`CC(C)=CCc1c(-c2ccc(O)cc2O)oc2c3c(cc(O)c2c1=O)OC(C)(C)C=C3` [Morusin, 3]: the concentration for half-maximal inhibition (IC50) was greater than 300 µM.
